{
  "source": "patent US20140120232A1",
  "about": "“ACID TASTE/ACID SMELL-REDUCING AGENT” (T. HASEGAWA CO., LTD., priority 2011, published 2014)",
  "experiment": "Sensory evaluation of yogurt containing the agent",
  "conditions": "ten panels",
  "description": "Sensory evaluation of each drink was carried out by ten panels. […] The piercing aroma characteristic to aldehydes is a characteristic aroma common to every aldehyde and refers to an irritant off-smell giving an image of deteriorated oils and fats, soap, metals, Houttuynia cordata, etc. The judgment of smell was performed by comparing the effects at different concentrations of the acid taste and/or acid smell-reducing agent, and a concentration giving the highest acid taste/acid smell quality was selected.\nA yogurt base material as a control was prepared by mixing 100 parts by mass of commercially available plain yogurt (milk non-fat solids: 9.5%, milk fat component: 3.0%) with 0.1 parts by mass of acetic acid (glacial acetic acid: food additive, manufactured by Junsei Chemical Co., Ltd.) with stirring. To the resulting mixture was added (Z,Z)-4,7-tridecadienal as the acid taste and/or acid smell-reducing agent of the present invention in concentrations shown in the following Table 9 to give yogurt containing the agent, followed by sensory evaluation as in Example 1.",
  "data": [
    {"smiles": "CCCCC/C=C\\C/C=C\\CCC=O", "note": "[(Z,Z)-4,7-tridecadienal]", "values": [
      {"measurement": "A: number of panels, acid taste/acid smell extreme and cause irritation", "setting": "0.005 ppt", "value": 10},
      {"measurement": "B: number of panels, acid taste/acid smell slightly strong and slightly cause irritation", "setting": "0.005 ppt", "value": 0},
      {"measurement": "C: number of panels, acid taste/acid smell slightly unpleasant", "setting": "0.005 ppt", "value": 0},
      {"measurement": "Flavor judgment: number of panels who judged acid taste/acid smell quality the highest", "setting": "0.005 ppt", "value": 0},
      {"measurement": "N: number of panels, irritation of acid reduced to give a mild acid taste", "setting": "0.005 ppt", "value": 0},
      {"measurement": "X: number of panels, acid taste reduced but piercing odor characteristic to aldehydes unpleasant", "setting": "0.005 ppt", "value": 0},
      {"measurement": "A: number of panels, acid taste/acid smell extreme and cause irritation", "setting": "0.02 ppt", "value": 8},
      {"measurement": "B: number of panels, acid taste/acid smell slightly strong and slightly cause irritation", "setting": "0.02 ppt", "value": 2},
      {"measurement": "C: number of panels, acid taste/acid smell slightly unpleasant", "setting": "0.02 ppt", "value": 0},
      {"measurement": "Flavor judgment: number of panels who judged acid taste/acid smell quality the highest", "setting": "0.02 ppt", "value": 0},
      {"measurement": "N: number of panels, irritation of acid reduced to give a mild acid taste", "setting": "0.02 ppt", "value": 0},
      {"measurement": "X: number of panels, acid taste reduced but piercing odor characteristic to aldehydes unpleasant", "setting": "0.02 ppt", "value": 0},
      {"measurement": "A: number of panels, acid taste/acid smell extreme and cause irritation", "setting": "0.1 ppt", "value": 5},
      {"measurement": "B: number of panels, acid taste/acid smell slightly strong and slightly cause irritation", "setting": "0.1 ppt", "value": 3},
      {"measurement": "C: number of panels, acid taste/acid smell slightly unpleasant", "setting": "0.1 ppt", "value": 2},
      {"measurement": "Flavor judgment: number of panels who judged acid taste/acid smell quality the highest", "setting": "0.1 ppt", "value": 0},
      {"measurement": "N: number of panels, irritation of acid reduced to give a mild acid taste", "setting": "0.1 ppt", "value": 0},
      {"measurement": "X: number of panels, acid taste reduced but piercing odor characteristic to aldehydes unpleasant", "setting": "0.1 ppt", "value": 0},
      {"measurement": "A: number of panels, acid taste/acid smell extreme and cause irritation", "setting": "0.2 ppt", "value": 4},
      {"measurement": "B: number of panels, acid taste/acid smell slightly strong and slightly cause irritation", "setting": "0.2 ppt", "value": 3},
      {"measurement": "C: number of panels, acid taste/acid smell slightly unpleasant", "setting": "0.2 ppt", "value": 3},
      {"measurement": "Flavor judgment: number of panels who judged acid taste/acid smell quality the highest", "setting": "0.2 ppt", "value": 0},
      {"measurement": "N: number of panels, irritation of acid reduced to give a mild acid taste", "setting": "0.2 ppt", "value": 0},
      {"measurement": "X: number of panels, acid taste reduced but piercing odor characteristic to aldehydes unpleasant", "setting": "0.2 ppt", "value": 0},
      {"measurement": "A: number of panels, acid taste/acid smell extreme and cause irritation", "setting": "0.5 ppt", "value": 1},
      {"measurement": "B: number of panels, acid taste/acid smell slightly strong and slightly cause irritation", "setting": "0.5 ppt", "value": 1},
      {"measurement": "C: number of panels, acid taste/acid smell slightly unpleasant", "setting": "0.5 ppt", "value": 2},
      {"measurement": "Flavor judgment: number of panels who judged acid taste/acid smell quality the highest", "setting": "0.5 ppt", "value": 1},
      {"measurement": "N: number of panels, irritation of acid reduced to give a mild acid taste", "setting": "0.5 ppt", "value": 6},
      {"measurement": "X: number of panels, acid taste reduced but piercing odor characteristic to aldehydes unpleasant", "setting": "0.5 ppt", "value": 0},
      {"measurement": "A: number of panels, acid taste/acid smell extreme and cause irritation", "setting": "1 ppb", "value": 0},
      {"measurement": "B: number of panels, acid taste/acid smell slightly strong and slightly cause irritation", "setting": "1 ppb", "value": 0},
      {"measurement": "C: number of panels, acid taste/acid smell slightly unpleasant", "setting": "1 ppb", "value": 3},
      {"measurement": "Flavor judgment: number of panels who judged acid taste/acid smell quality the highest", "setting": "1 ppb", "value": 0},
      {"measurement": "N: number of panels, irritation of acid reduced to give a mild acid taste", "setting": "1 ppb", "value": 3},
      {"measurement": "X: number of panels, acid taste reduced but piercing odor characteristic to aldehydes unpleasant", "setting": "1 ppb", "value": 4},
      {"measurement": "A: number of panels, acid taste/acid smell extreme and cause irritation", "setting": "1 ppt", "value": 0},
      {"measurement": "B: number of panels, acid taste/acid smell slightly strong and slightly cause irritation", "setting": "1 ppt", "value": 1},
      {"measurement": "C: number of panels, acid taste/acid smell slightly unpleasant", "setting": "1 ppt", "value": 3},
      {"measurement": "Flavor judgment: number of panels who judged acid taste/acid smell quality the highest", "setting": "1 ppt", "value": 2},
      {"measurement": "N: number of panels, irritation of acid reduced to give a mild acid taste", "setting": "1 ppt", "value": 6},
      {"measurement": "X: number of panels, acid taste reduced but piercing odor characteristic to aldehydes unpleasant", "setting": "1 ppt", "value": 0},
      {"measurement": "A: number of panels, acid taste/acid smell extreme and cause irritation", "setting": "5 ppt", "value": 0},
      {"measurement": "B: number of panels, acid taste/acid smell slightly strong and slightly cause irritation", "setting": "5 ppt", "value": 0},
      {"measurement": "C: number of panels, acid taste/acid smell slightly unpleasant", "setting": "5 ppt", "value": 2},
      {"measurement": "Flavor judgment: number of panels who judged acid taste/acid smell quality the highest", "setting": "5 ppt", "value": 4},
      {"measurement": "N: number of panels, irritation of acid reduced to give a mild acid taste", "setting": "5 ppt", "value": 8},
      {"measurement": "X: number of panels, acid taste reduced but piercing odor characteristic to aldehydes unpleasant", "setting": "5 ppt", "value": 0},
      {"measurement": "A: number of panels, acid taste/acid smell extreme and cause irritation", "setting": "10 ppb", "value": 0},
      {"measurement": "B: number of panels, acid taste/acid smell slightly strong and slightly cause irritation", "setting": "10 ppb", "value": 0},
      {"measurement": "C: number of panels, acid taste/acid smell slightly unpleasant", "setting": "10 ppb", "value": 2},
      {"measurement": "Flavor judgment: number of panels who judged acid taste/acid smell quality the highest", "setting": "10 ppb", "value": 0},
      {"measurement": "N: number of panels, irritation of acid reduced to give a mild acid taste", "setting": "10 ppb", "value": 2},
      {"measurement": "X: number of panels, acid taste reduced but piercing odor characteristic to aldehydes unpleasant", "setting": "10 ppb", "value": 6},
      {"measurement": "A: number of panels, acid taste/acid smell extreme and cause irritation", "setting": "20 ppt", "value": 0},
      {"measurement": "B: number of panels, acid taste/acid smell slightly strong and slightly cause irritation", "setting": "20 ppt", "value": 0},
      {"measurement": "C: number of panels, acid taste/acid smell slightly unpleasant", "setting": "20 ppt", "value": 4},
      {"measurement": "Flavor judgment: number of panels who judged acid taste/acid smell quality the highest", "setting": "20 ppt", "value": 3},
      {"measurement": "N: number of panels, irritation of acid reduced to give a mild acid taste", "setting": "20 ppt", "value": 6},
      {"measurement": "X: number of panels, acid taste reduced but piercing odor characteristic to aldehydes unpleasant", "setting": "20 ppt", "value": 0},
      {"measurement": "A: number of panels, acid taste/acid smell extreme and cause irritation", "setting": "50 ppb", "value": 0},
      {"measurement": "B: number of panels, acid taste/acid smell slightly strong and slightly cause irritation", "setting": "50 ppb", "value": 0},
      {"measurement": "C: number of panels, acid taste/acid smell slightly unpleasant", "setting": "50 ppb", "value": 1},
      {"measurement": "Flavor judgment: number of panels who judged acid taste/acid smell quality the highest", "setting": "50 ppb", "value": 0},
      {"measurement": "N: number of panels, irritation of acid reduced to give a mild acid taste", "setting": "50 ppb", "value": 1},
      {"measurement": "X: number of panels, acid taste reduced but piercing odor characteristic to aldehydes unpleasant", "setting": "50 ppb", "value": 8},
      {"measurement": "A: number of panels, acid taste/acid smell extreme and cause irritation", "setting": "100 ppt", "value": 0},
      {"measurement": "B: number of panels, acid taste/acid smell slightly strong and slightly cause irritation", "setting": "100 ppt", "value": 1},
      {"measurement": "C: number of panels, acid taste/acid smell slightly unpleasant", "setting": "100 ppt", "value": 3},
      {"measurement": "Flavor judgment: number of panels who judged acid taste/acid smell quality the highest", "setting": "100 ppt", "value": 0},
      {"measurement": "N: number of panels, irritation of acid reduced to give a mild acid taste", "setting": "100 ppt", "value": 4},
      {"measurement": "X: number of panels, acid taste reduced but piercing odor characteristic to aldehydes unpleasant", "setting": "100 ppt", "value": 2},
      {"measurement": "A: number of panels, acid taste/acid smell extreme and cause irritation", "setting": "500 ppt", "value": 0},
      {"measurement": "B: number of panels, acid taste/acid smell slightly strong and slightly cause irritation", "setting": "500 ppt", "value": 0},
      {"measurement": "C: number of panels, acid taste/acid smell slightly unpleasant", "setting": "500 ppt", "value": 3},
      {"measurement": "Flavor judgment: number of panels who judged acid taste/acid smell quality the highest", "setting": "500 ppt", "value": 0},
      {"measurement": "N: number of panels, irritation of acid reduced to give a mild acid taste", "setting": "500 ppt", "value": 4},
      {"measurement": "X: number of panels, acid taste reduced but piercing odor characteristic to aldehydes unpleasant", "setting": "500 ppt", "value": 3}
    ]}
  ]
}
